{"source": "patent US20230210786A1", "about": "“METHOD FOR SO[…], […] […] CANNABINOIDS” (ATHENION AG, priority 2020, published 2023)", "origin": "cited, not measured here", "conditions": "in vivo"}
{"smiles": "CCCCCc1cc(O)c2c(c1)OC(C)(C)[C@@H]1CCC(C)=C[C@@H]21", "note": "[THC, (-)-trans-Δ^9-tetrahydrocannabinol]", "values": [{"measurement": "apparent volume of distribution", "value": 10, "unit": "L/kg"}, {"measurement": "plasma protein binding", "value": "ca. 97%"}]}
